# Measurements reported in patent US10105440B2, “Synthetic derivatives of MPL and uses thereof” (VARIATION BIOTECHNOLOGIES INC., priority 2011, dated 2018).
# How the values were obtained:
# [1] = system: Human Peripheral Blood Mononuclear Cell (hPBMC); assay: Cytokine induction assay (BD Cytometric Bead Array) in hPBMC culture supernatants; assay type: cell-based; conditions: human PBMCs (n=3) stimulated 48 hours, CBA assay
# Source text: The BD™ Cytometric Bead Array (CBA) Human inflammatory Cytokines Kit was used to quantitatively measure Tumor Necrosis Factor (TNF a), Interleukin-6 (IL-6) and Interleukin-1β (IL-1β) protein levels in single samples of Human Peripheral Blood Mononuclear Cell (hPBMC) culture supernatants pretreated with either the adjuvant PHAD or MAV4. The detection reagent provided in the kit was a mixture of phycoerythrin (PE)-conjugated antibodies, which provides a fluorescent signal in proportion to the amount of bound cytokine.
# When the capture beads and detector reagent are incubated with an unknown sample containing recognized cytokines, sandwich complexes (capture bead+cytokine+detection reagent) are formed. These complexes are measured using flow cytometry.
# To perform the assay lyophilized human inflammatory cytokine standards were reconstituted with assay diluent and serially diluted (standard curve for each protein covers a defined set of concentrations from […]) and test samples were diluted to the desired dilution factor using the assay diluent before mixing all assay tubes with capture beads (50 μl) and PE detection reagent (50 μl). […] Samples were then analyzed by flow cytometry and data was analyzed using FCAP Array Software. […]
# [2] = Reverse phase HPLC analysis of adjuvant co-melted with 1-monopalmitoyl glycerol (thermostability); assay type: physicochemical
# Experimental: Reverse phase HPLC analysis of PHAD and MAV4 co-melted with 1-monopalmitoyl glycerol at the inverted melt method temperature (Example 4) was used to evaluate the thermostability or thermolability of the two adjuvants under these thermal conditions. In the procedure, the samples were prepared as follows, in isopropanol (IPA) using 1.5 ml autoinjection vials as duplicates: PHAD: 20 μg PHAD+180 μg 1-monopalmitoyl glycerol (1:9 wt ratio); MAV4: 10 μg+90 μg 1-monopalmitoyl glycerol (1:9 wt ratio).
# The samples were lyophilized overnight. The dried samples were melted for six minutes at 120° C. and 140° C. Each sample was then dissolved in IPA to give a concentration of 0.1 μg/μl for an HPLC load of 20 μL.
substance,measurement,setting,value
phosphorylated hexaacyl disaccharide [PHAD],"secretion of TNF-α, IL-1β and IL-6",[1],induced dose-dependent immune responses
same,Area Under the Curve (AUC) of the HPLC peak,"[2]; co-melted with 1-monopalmitoyl glycerol (1:9 wt), melted six minutes at 140° C. versus 120° C.",significant decrease
same,minor peaks (degradation) in the chromatogram,"[2]; co-melted with 1-monopalmitoyl glycerol, melted at 120° C. and 140° C.",No minor peaks were observed
